Reference: ChEMBL document CHEMBL5046315, “CRCM5484: A BET-BDII Selective Compound with Differential Anti-leukemic Drug Modulation” (J Med Chem, 2022)
Activity calls are given as the source filed them.

What was measured:
MOLM-14 [1] = assay: Potentiation of -mastinib -induced antileukemic activity against human MOLM-14 cells at 4.3 uM in presence of bone-marrow derived stromal cell-conditioned medium; assay type: functional, cell-based
MOLM-14 [2] = assay: Potentiation of rigosertib-induced antileukemic activity against human MOLM-14 cells at 4.3 uM in presence of bone-marrow derived stromal cell-conditioned medium; assay type: functional, cell-based
[3] = biological target: Bromodomain-containing protein 3 (Homo sapiens, UniProt Q15059); assay: Inhibition of BRD3-BD1 domain (unknown origin) incubated for 6 hrs by HTRF method
CCRF-CEM [4] = assay: Potentiation of selinexor-induced antileukemic activity against human CCRF-CEM cells at 4.3 uM in presence of bone-marrow derived stromal cell-conditioned medium; assay type: functional, cell-based
MOLM-14 [5] = assay: Potentiation of niotinib-induced antileukemic activity against human MOLM-14 cells at 4.3 uM in presence of bone-marrow derived stromal cell-conditioned medium; assay type: functional, cell-based
U-937 [6] = assay: Potentiation of selinexor-induced antileukemic activity against human U-937 cells at 4.3 uM in presence of bone-marrow derived stromal cell-conditioned medium; assay type: functional, cell-based
U-937 [7] = assay: Potentiation of EPZ5676-induced antileukemic activity against human U-937 cells at 4.3 uM in presence of bone-marrow derived stromal cell-conditioned medium; assay type: functional, cell-based
MOLM-14 [8] = assay: Potentiation of SGI-110-induced antileukemic activity against human MOLM-14 cells at 4.3 uM in presence of bone-marrow derived stromal cell-conditioned medium; assay type: functional, cell-based
U-937 [9] = assay: Potentiation of lapatinib-induced antileukemic activity against human U-937 cells at 4.3 uM in presence of bone-marrow derived stromal cell-conditioned medium; assay type: functional, cell-based
U-937 [10] = assay: Potentiation of idelalisib-induced antileukemic activity against human U-937 cells at 4.3 uM in presence of bone-marrow derived stromal cell-conditioned medium; assay type: functional, cell-based
CCRF-CEM [11] = assay: Potentiation of alisertib-induced antileukemic activity against human CCRF-CEM cells at 4.3 uM in presence of bone-marrow derived stromal cell-conditioned medium; assay type: functional, cell-based
MOLM-14 [12] = assay: Potentiation of VX680-induced antileukemic activity against human MOLM-14 cells at 4.3 uM in presence of bone-marrow derived stromal cell-conditioned medium; assay type: functional, cell-based
CCRF-CEM [13] = assay: Potentiation of sorafenib-induced antileukemic activity against human CCRF-CEM cells at 4.3 uM in presence of bone-marrow derived stromal cell-conditioned medium; assay type: functional, cell-based
U-937 [14] = assay: Potentiation of bosutinib-induced antileukemic activity against human U-937 cells at 4.3 uM in presence of bone-marrow derived stromal cell-conditioned medium; assay type: functional, cell-based
CCRF-CEM [15] = assay: Potentiation of seliciclib-induced antileukemic activity against human CCRF-CEM cells at 4.3 uM in presence of bone-marrow derived stromal cell-conditioned medium; assay type: functional, cell-based
U-937 [16] = assay: Potentiation of AG-221-induced antileukemic activity against human U-937 cells at 4.3 uM in presence of bone-marrow derived stromal cell-conditioned medium; assay type: functional, cell-based
U-937 [17] = assay: Potentiation of vorinostat-induced antileukemic activity against human U-937 cells at 4.3 uM in presence of bone-marrow derived stromal cell-conditioned medium; assay type: functional, cell-based
MOLM-14 [18] = assay: Potentiation of cladribine-induced antileukemic activity against human MOLM-14 cells at 4.3 uM in presence of bone-marrow derived stromal cell-conditioned medium; assay type: functional, cell-based
CCRF-CEM [19] = assay: Potentiation of temsirolimus-induced antileukemic activity against human CCRF-CEM cells at 4.3 uM in presence of bone-marrow derived stromal cell-conditioned medium; assay type: functional, cell-based
CCRF-CEM [20] = assay: Potentiation of midostaurin-induced antileukemic activity against human CCRF-CEM cells at 4.3 uM in presence of bone-marrow derived stromal cell-conditioned medium; assay type: functional, cell-based
MOLM-14 [21] = assay: Potentiation of azacitidine-induced antileukemic activity against human MOLM-14 cells at 4.3 uM in presence of bone-marrow derived stromal cell-conditioned medium; assay type: functional, cell-based
MOLM-14 [22] = assay: Potentiation of olaparid-induced antileukemic activity against human MOLM-14 cells at 4.3 uM in presence of bone-marrow derived stromal cell-conditioned medium; assay type: functional, cell-based
U-937 [23] = assay: Potentiation of birinapant-induced antileukemic activity against human U-937 cells at 4.3 uM in presence of bone-marrow derived stromal cell-conditioned medium; assay type: functional, cell-based
CCRF-CEM [24] = assay: Potentiation of SGI-1027-induced antileukemic activity against human CCRF-CEM cells at 4.3 uM in presence of bone-marrow derived stromal cell-conditioned medium; assay type: functional, cell-based
MOLM-14 [25] = assay: Potentiation of vorinostat-induced antileukemic activity against human MOLM-14 cells at 4.3 uM in presence of bone-marrow derived stromal cell-conditioned medium; assay type: functional, cell-based
MOLM-14 [26] = assay: Potentiation of bosutinib-induced antileukemic activity against human MOLM-14 cells at 4.3 uM in presence of bone-marrow derived stromal cell-conditioned medium; assay type: functional, cell-based
MOLM-14 [27] = assay: Potentiation of alisertib-induced antileukemic activity against human MOLM-14 cells at 4.3 uM in presence of bone-marrow derived stromal cell-conditioned medium; assay type: functional, cell-based
MOLM-14 [28] = assay: Potentiation of MK2206-induced antileukemic activity against human MOLM-14 cells at 4.3 uM in presence of bone-marrow derived stromal cell-conditioned medium; assay type: functional, cell-based
MOLM-14 [29] = assay: Potentiation of erlotinib-induced antileukemic activity against human MOLM-14 cells at 4.3 uM in presence of bone-marrow derived stromal cell-conditioned medium; assay type: functional, cell-based
U-937 [30] = assay: Potentiation of trametinib-induced antileukemic activity against human U-937 cells at 4.3 uM in presence of bone-marrow derived stromal cell-conditioned medium; assay type: functional, cell-based
MOLM-14 [31] = assay: Potentiation of entinostat-induced antileukemic activity against human MOLM-14 cells at 4.3 uM in presence of bone-marrow derived stromal cell-conditioned medium; assay type: functional, cell-based
U-937 [32] = assay: Potentiation of temsirolimus-induced antileukemic activity against human U-937 cells at 4.3 uM in presence of bone-marrow derived stromal cell-conditioned medium; assay type: functional, cell-based
[33] = biological target: Bromodomain-containing protein 2 (Homo sapiens, UniProt P25440); assay: Inhibition of BRD2-BD2 (unknown origin) incubated for 6 hrs by HTRF method
U-937 [34] = assay: Potentiation of clofarabine-induced antileukemic activity against human U-937 cells at 4.3 uM in presence of bone-marrow derived stromal cell-conditioned medium; assay type: functional, cell-based
U-937 [35] = assay: Potentiation of sunitinib-induced antileukemic activity against human U-937 cells at 4.3 uM in presence of bone-marrow derived stromal cell-conditioned medium; assay type: functional, cell-based
CCRF-CEM [36] = assay: Potentiation of afatinib-induced antileukemic activity against human CCRF-CEM cells at 4.3 uM in presence of bone-marrow derived stromal cell-conditioned medium; assay type: functional, cell-based
U-937 [37] = assay: Potentiation of gileritinib-induced antileukemic activity against human U-937 cells at 4.3 uM in presence of bone-marrow derived stromal cell-conditioned medium; assay type: functional, cell-based
CCRF-CEM [38] = assay: Potentiation of rigosertib-induced antileukemic activity against human CCRF-CEM cells at 4.3 uM in presence of bone-marrow derived stromal cell-conditioned medium; assay type: functional, cell-based
U-937 [39] = assay: Potentiation of everolimus-induced antileukemic activity against human U-937 cells at 4.3 uM in presence of bone-marrow derived stromal cell-conditioned medium; assay type: functional, cell-based
U-937 [40] = assay: Potentiation of vincristine-induced antileukemic activity against human U-937 cells at 4.3 uM in presence of bone-marrow derived stromal cell-conditioned medium; assay type: functional, cell-based
U-937 [41] = assay: Potentiation of palbociclib-induced antileukemic activity against human U-937 cells at 4.3 uM in presence of bone-marrow derived stromal cell-conditioned medium; assay type: functional, cell-based
MOLM-14 [42] = assay: Potentiation of afatinib-induced antileukemic activity against human MOLM-14 cells at 4.3 uM in presence of bone-marrow derived stromal cell-conditioned medium; assay type: functional, cell-based

Bromodomain-containing protein 2, sequence (P25440 whole entry): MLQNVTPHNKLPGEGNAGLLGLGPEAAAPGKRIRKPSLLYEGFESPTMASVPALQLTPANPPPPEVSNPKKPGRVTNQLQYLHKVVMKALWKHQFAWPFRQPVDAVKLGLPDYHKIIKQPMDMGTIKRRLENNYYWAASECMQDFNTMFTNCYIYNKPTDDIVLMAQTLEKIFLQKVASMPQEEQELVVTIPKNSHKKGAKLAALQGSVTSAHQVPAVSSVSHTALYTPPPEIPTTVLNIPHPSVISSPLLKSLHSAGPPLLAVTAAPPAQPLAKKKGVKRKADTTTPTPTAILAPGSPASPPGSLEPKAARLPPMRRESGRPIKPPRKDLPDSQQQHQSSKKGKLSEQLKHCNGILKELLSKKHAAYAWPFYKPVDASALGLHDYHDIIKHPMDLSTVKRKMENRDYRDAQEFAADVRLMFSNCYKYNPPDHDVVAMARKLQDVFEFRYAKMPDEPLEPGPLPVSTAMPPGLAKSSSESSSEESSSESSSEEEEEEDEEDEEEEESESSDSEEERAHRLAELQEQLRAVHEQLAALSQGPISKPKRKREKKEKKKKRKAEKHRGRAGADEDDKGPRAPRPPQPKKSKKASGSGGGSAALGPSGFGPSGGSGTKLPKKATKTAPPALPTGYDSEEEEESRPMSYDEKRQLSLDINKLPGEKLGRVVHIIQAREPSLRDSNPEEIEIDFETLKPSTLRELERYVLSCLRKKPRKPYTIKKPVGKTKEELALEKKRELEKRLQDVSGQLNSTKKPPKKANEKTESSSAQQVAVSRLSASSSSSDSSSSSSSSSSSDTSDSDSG
Bromodomain-containing protein 3, sequence (Q15059 whole entry, the tested form may be a part): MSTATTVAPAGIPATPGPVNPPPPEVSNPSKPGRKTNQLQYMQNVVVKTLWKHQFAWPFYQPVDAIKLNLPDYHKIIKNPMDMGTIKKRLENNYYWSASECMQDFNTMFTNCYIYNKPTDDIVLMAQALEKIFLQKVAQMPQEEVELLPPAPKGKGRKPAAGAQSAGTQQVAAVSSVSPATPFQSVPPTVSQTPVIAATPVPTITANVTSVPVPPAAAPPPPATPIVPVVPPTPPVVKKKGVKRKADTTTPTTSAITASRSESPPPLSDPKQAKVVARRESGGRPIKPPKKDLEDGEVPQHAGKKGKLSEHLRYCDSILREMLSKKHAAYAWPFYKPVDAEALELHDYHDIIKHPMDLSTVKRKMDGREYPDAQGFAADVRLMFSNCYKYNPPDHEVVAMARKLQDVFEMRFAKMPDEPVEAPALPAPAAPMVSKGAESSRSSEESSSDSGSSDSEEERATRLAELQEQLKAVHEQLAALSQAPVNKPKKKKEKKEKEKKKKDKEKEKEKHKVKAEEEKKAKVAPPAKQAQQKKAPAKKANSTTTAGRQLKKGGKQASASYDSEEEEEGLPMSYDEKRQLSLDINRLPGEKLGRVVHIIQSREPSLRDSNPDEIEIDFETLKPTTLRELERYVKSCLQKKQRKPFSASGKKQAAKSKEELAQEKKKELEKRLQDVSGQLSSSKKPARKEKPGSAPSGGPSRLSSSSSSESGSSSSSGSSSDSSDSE

CC(=O)N1CCc2c(sc3nc(SCC(=O)Nc4cccnc4C)n(Cc4ccco4)c(=O)c23)C1
9.5 µM: IC50 [3]
inactive: Activity (MOLM-14 [1]) | Activity (MOLM-14 [2]) | Activity (CCRF-CEM [4]) | Activity (MOLM-14 [5]) | Activity (U-937 [6]) | Activity (U-937 [7]) | Activity (MOLM-14 [8]) | Activity (U-937 [9]) | Activity (U-937 [10]) | Activity (CCRF-CEM [11]) | Activity (MOLM-14 [12]) | Activity (CCRF-CEM [13]) | Activity (U-937 [14]) | Activity (CCRF-CEM [15]) | Activity (U-937 [16]) | Activity (U-937 [17]) | Activity (MOLM-14 [18]) | Activity (CCRF-CEM [19]) | Activity (CCRF-CEM [20]) | Activity (MOLM-14 [21]) | Activity (MOLM-14 [22]) | Activity (U-937 [23]) | Activity (CCRF-CEM [24]) | Activity (MOLM-14 [25]) | Activity (MOLM-14 [26]) | Activity (MOLM-14 [27]) | Activity (MOLM-14 [28]) | Activity (MOLM-14 [29]) | Activity (U-937 [30]) | Activity (MOLM-14 [31]) | Activity (U-937 [32]) | Activity (U-937 [34]) | Activity (U-937 [35]) | Activity (CCRF-CEM [36]) | Activity (U-937 [37]) | Activity (CCRF-CEM [38]) | Activity (U-937 [39]) | Activity (U-937 [40]) | Activity (U-937 [41]) | Activity (MOLM-14 [42])
0.071 µM: IC50 [33]
